# Experimental data taken from patent US4925855A, “Imidazole derivatives and antimycotics containing them” (CL Pharma Aktiengesellschaft, priority 1986, dated 1990).
# Tests used:
# Format in all cases: cell-based
# [1] = tested on: Trichophyton mentagrophytes; assay: MIC in serial dilution test, Trichophyton mentagrophytes; conditions: 336 h, pH 6, Trichophyton mentagrophytes, pH 6.0, 22° C., 14 days, read-out: MIC values, Tri. me.
# Procedure: (§1) The antimycotic activities of the compounds were measured by in vitro determination of the minimum inhibitory concentration (MIC) for yeasts, molds and dermatophytes.
# (§2) 6 dermatophytes, 2 yeasts and 4 molds were used for testing with fungi, as follows:
# Trichophyton mentagrophytes
# (§3) The minimum inhibitory concentration (MIC) was determined in serial dilution tests in test tubes. The volume of the liquid nutrient medium in each test tube was 4.5 ml.
# (§4) The substances were dissolved in DMSO and diluted with sterile distilled water to 10 concentrations (100, 50, 25, 12.5, 6.25, 3.12, 1.56, 0.78, 0.39 and 0.19 μg/ml). 0.5 ml of each of these dilution steps was added to the liquid nutrient medium. Thus, a constant concentration of solvent in all the nutrient media was ensured, irrespective of the active compound concentration.
# (§5) A comparison solution which contained only the solvent in appropriate concentration was included when carrying out each of the tests.
# (§6) The individual strains were maintained on Sabouraud/beerwort agar slants and, before they were used in a test, they underwent a passage on a modified Sabouraud liquid nutrient medium. The strains were then harvested, washed and converted into a suspension of McFaerland 3 in the case of yeasts and molds and of McFaerland 4-5 in the case of dermatophytes.
# (§7) The amount of material inoculated (inoculum) was 100 μl/test tube (inoculated densities: yeasts […] of the liquid nutrient medium was 6.0. After inoculation had taken place the fungi were incubated at 22° C. for 14 days.
# (§8) The MIC was then determined. The concentration step at which growth was no longer visible on macroscopic inspection was used for the determination of the MIC. The comparison substance used was 1-(2-(2,4-dichlorophenyl)-2-(2,4-dichlorophenylmethoxy)ethyl)-1H-imidazoleas nitrate (compound A).
# Trichophyton rubrum = assay: MIC in serial dilution test, Trichophyton rubrum; conditions: 336 h, pH 6, Trichophyton rubrum, pH 6.0, 22° C., 14 days, read-out: MIC values, Tri. ru.
# Procedure: as §1, §2
# Trichophyton rubrum (Tri.ru.)
# as §3, §4, §5, §6, §7, §8
# Trichophyton verrucosum = assay: MIC in serial dilution test, Trichophyton verrucosum; conditions: 336 h, pH 6, Trichophyton verrucosum, pH 6.0, 22° C., 14 days, read-out: MIC values, Tri. ve.
# Procedure: as §1, §2
# Trichophyton verrucosum (Tri.ve.)
# as §3, §4, §5, §6, §7, §8
# Microsporum canis = assay: MIC in serial dilution test, Microsporum canis; conditions: 336 h, pH 6, Microsporum canis, pH 6.0, 22° C., 14 days, read-out: MIC values, Mi. can
# Procedure: as §1, §2
# Microsporum canis (Mi.can.)
# as §3, §4, §5, §6, §7, §8
# Epidermophyton floccosum = assay: MIC in serial dilution test, Epidermophyton floccosum; conditions: 336 h, pH 6, Epidermophyton floccosum, pH 6.0, 22° C., 14 days, read-out: MIC values, Ep. flo
# Procedure: as §1, §2
# Epidermophyton floccosum
# as §3, §4, §5, §6, §7, §8
# Microsporum gypseum = assay: MIC in serial dilution test, Microsporum gypseum; conditions: Nannizzia gypsea, 336 h; Microsporum gypseum; pH 6.0, 22° C., 14 days; read-out: MIC values, Mi. gyp
# Procedure: as §1, §2
# Microsporum gypseum (Mi.gyp.)
# as §3, §4, §5, §6, §7, §8
# Candida albicans = assay: MIC in serial dilution test, Candida albicans; conditions: 336 h, pH 6.0, 22° C., 14 days, read-out: MIC values, C. alb
# Procedure: as §1, §2
# Candida albicans (C.alb.)
# as §3, §4, §5, §6, §7, §8
# Candida tropicalis = assay: MIC in serial dilution test, Candida tropicalis; conditions: 336 h, pH 6, Candida tropicalis, pH 6.0, 22° C., 14 days, read-out: MIC values, C. trop
# Procedure: as §1, §2
# Candida tropicalis (C.trop.)
# as §3, §4, §5, §6, §7, §8
# Aspergillus fumigatus = assay: MIC in serial dilution test, Aspergillus fumigatus; conditions: 20160 min, pH 6
# Procedure: as §1, §2
# Aspergillus fumigatus (Asp.fu.)
# as §3, §4, §5, §6, §7, §8
# Mucor mucedo plus = assay: MIC in serial dilution test, Mucor mucedo plus; conditions: 336 h, pH 6, Mucor mucedo plus, pH 6.0, 22° C., 14 days, read-out: MIC values, Mu. mu+
# Procedure: as §1, §2
# Mucor mucedo plus (Mu.mu^+)
# as §3, §4, §5, §6, §7, §8
# Mucor mucedo minus = assay: MIC in serial dilution test, Mucor mucedo minus; conditions: 336 h, pH 6, Mucor mucedo minus, pH 6.0, 22° C., 14 days, read-out: MIC values, Mu. mu-
# Procedure: as §1, §2
# Mucor mucedo minus (Mu.mu^-)
# as §3, §4, §5, §6, §7, §8
# Absidia ramosa = assay: MIC in serial dilution test, Absidia ramosa; conditions: Lichtheimia ramosa, 336 h, pH 6, Absidia ramosa; pH 6.0, 22° C., 14 days; read-out: MIC values, Abs. ra.
# Procedure: as §1, §2
# Absidia ramosa (Abs.ra.)
# as §3, §4, §5, §6, §7, §8
smiles,measurement,setting,value
Fc1ccc(SCCCNC(Cn2ccnc2)c2ccc(Cl)cc2Cl)cc1 (stereo not shown) [compound 18],MIC,[1],6.25 µg/mL
same,MIC,Trichophyton rubrum,0.78 µg/mL
same,MIC,Trichophyton verrucosum,0.39 µg/mL
same,MIC,Microsporum canis,6.25 µg/mL
same,MIC,Epidermophyton floccosum,3.12 µg/mL
same,MIC,Microsporum gypseum,3.12 µg/mL
same,MIC,Candida albicans,12.5 µg/mL
same,MIC,Candida tropicalis,6.25 µg/mL
same,"MIC values, Asp. fu.",Aspergillus fumigatus,"12,5 μg/ml"
same,MIC,Mucor mucedo plus,12.5 µg/mL
same,MIC,Mucor mucedo minus,12.5 µg/mL
same,MIC,Absidia ramosa,6.25 µg/mL
"Clc1ccc(SCCCNC(Cn2ccnc2)c2ccc(Cl)cc2Cl)cc1 (stereo not shown) [compound 20, 1-(2-(2,4-Dichlorophenyl)-2-(3-(4-chlorophenylthio)-propylamino)ethyl)-1H-imidazole]","MIC values, Asp. fu.",Aspergillus fumigatus,"3,12 μg/ml"
"Clc1ccc(C(Cn2ccnc2)NCCCSc2ccc(Br)cc2)c(Cl)c1 (stereo not shown) [compound 23, 1-(2-(2,4-dichlorophenyl)-2-(3-(4-bromophenylthio)propylamino)ethyl)-1H-imidazole]",MIC,Microsporum canis,1.56 µg/mL
same,MIC,Candida tropicalis,1.56 µg/mL
same,"MIC values, Asp. fu.",Aspergillus fumigatus,"1,56 μg/ml"
Clc1ccc(C(Cn2ccnc2)NCCCSc2ccc(Br)cc2)c(Cl)c1 (stereo not shown) [compound 24],"MIC values, Asp. fu.",Aspergillus fumigatus,"0,39 μg/ml"
Clc1ccc(C(Cn2ccnc2)NCCCSc2c(Cl)cccc2Cl)c(Cl)c1 (stereo not shown) [compound 26],"MIC values, Asp. fu.",Aspergillus fumigatus,"12,5 μg/ml"
Clc1ccc(C(Cn2ccnc2)NCCCSc2ccc3ccccc3c2)c(Cl)c1 (stereo not shown) [compound 27],"MIC values, Asp. fu.",Aspergillus fumigatus,"0,78 μg/ml"
Clc1ccc(SCCCNC(Cn2ccnc2)c2cccs2)cc1 (stereo not shown) [compound 31],MIC,[1],12.5 µg/mL
same,MIC,Trichophyton rubrum,3.12 µg/mL
same,MIC,Trichophyton verrucosum,3.12 µg/mL
same,MIC,Microsporum canis,25 µg/mL
same,MIC,Epidermophyton floccosum,3.12 µg/mL
same,MIC,Microsporum gypseum,6.25 µg/mL
same,MIC,Candida albicans,12.5 µg/mL
same,MIC,Candida tropicalis,25 µg/mL
same,"MIC values, Asp. fu.",Aspergillus fumigatus,"12,5 μg/ml"
same,MIC,Mucor mucedo plus,12.5 µg/mL
same,MIC,Mucor mucedo minus,12.5 µg/mL
same,MIC,Absidia ramosa,2.5 µg/mL
"CN(CCCSCc1ccc(Cl)cc1)C(Cn1ccnc1)c1ccc(Cl)cc1Cl (stereo not shown) [compound 36, 1-(2-(2,4-Dichlorophenyl)-2-(N-methyl-3-(4-chlorobenzylthio)propylamino)ethyl)-1H-imidazole]","MIC values, Asp. fu.",Aspergillus fumigatus,"25,0 μg/ml"
Clc1ccc(SCCCCCNC(Cn2ccnc2)c2ccc(Cl)cc2Cl)cc1 (stereo not shown) [compound 38],"MIC values, Asp. fu.",Aspergillus fumigatus,"6,25 μg/ml"
Clc1ccc(SCCCNC(Cn2ccnc2)c2cccc3ccccc23)cc1 (stereo not shown) [compound 41],"MIC values, Asp. fu.",Aspergillus fumigatus,"3,12 μg/ml"
